Data from patent publication US20160206645A1, “COMBINATION THERAPIES FOR TREATMENT OF HCV” (priority 2015, published 2016).

What was measured:
[1] = Pharmacokinetic analysis at week 2 and week 8 (Example 5); type: in vivo, human
[2] = Plasma PK parameters at Week 2 and Week 8, interim analysis (Example 4); type: in vivo, human; set-up: AUC: concentration or dose not given beside the values; conditions: for Cmax / AUC: human
Method: Methods: HCV treatment-naïve or (peg)IFN±ribavirin treatment-experienced GT1/4-infected cirrhotic pts≧18 yrs with Child-Pugh (CP) score<7 (Class A) with evidence of portal hypertension or 7-9 (Class B) were enrolled. Pts received 12 wks of SMV (150 mg once daily [QD]), DCV (60 mg QD) and SOF (400 mg QD). Primary efficacy endpoint: sustained virologic response 12 wks after end of treatment (EOT, SVR12). Key secondary endpoints: SVR4, on-treatment failure, viral relapse, PK and safety.

[3] = plasma, oral, Week 2, Child-Pugh A (n = 19)
[4] = plasma, oral, Week 2, Child-Pugh B (n = 9)
[5] = plasma, oral, Week 8, Child-Pugh A (n = 18)
[6] = plasma, oral, Week 8, Child-Pugh B (n = 9)
[7] = in vivo, Week 2, Child-Pugh A (n = 19), plasma
[8] = in vivo, Week 2, Child-Pugh B (n = 9), plasma
[9] = in vivo, Week 8, Child-Pugh A (n = 18), plasma
[10] = in vivo, Week 8, Child-Pugh B (n = 9), plasma

In the case of COC(=O)N[C@H](C(=O)N1CCC[C@H]1c1nc(-c2ccc(-c3ccc(-c4c[nH]c([C@@H]5CCCN5C(=O)[C@@H](NC(=O)OC)C(C)C)n4)cc3)cc2)c[nH]1)C(C)C [Daclatasvir, daclatasvir], the “mean exposure in Child-Pugh A and Child-Pugh B subjects” value ([1]; treatment with SMV+SOF+DCV) is reported as “similar”, the “Mean exposures within groups and at Wk2 vs Wk8” value ([2]; CP A and CP B) is reported as “similar” and the “AUC, mean” value ([2]; Week 2, Child-Pugh A (n = 19), plasma) is reported as 16022 ng·h/mL. The Cmax [2, 3] was 1150 ng/mL, the AUC [2, 4] was 14200 ng·h/mL and the Cmax [2, 4] was 958 ng/mL. The AUC [2, 5] was 15600 ng·h/mL, the Cmax [2, 5] was 1070 ng/mL and the AUC [2, 6] was 13500 ng·h/mL. It also gave a Cmax [2, 6] of 854 ng/mL.
With C[C@@]1(F)[C@H](O)[C@@H](CO)O[C@H]1n1ccc(=O)[nH]c1=O [GS-331007] the “mean exposure in Child-Pugh A and Child-Pugh B subjects” value ([1]; in vivo) was “similar”.
For COc1ccc2c(O[C@@H]3C[C@H]4C(=O)N[C@]5(C(=O)NS(=O)(=O)C6CC6)C[C@H]5/C=C\CCCCN(C)C(=O)[C@@H]4C3)cc(-c3nc(C(C)C)cs3)nc2c1C [Simeprevir, simeprevir], the “mean exposure, higher in Child-Pugh B subjects than in Child-Pugh A subjects” value ([1]; treatment with SMV+SOF+DCV) was 2.2 fold, the “Mean exposures for both groups, Wk2 vs Wk8” value ([2]; CP A and CP B) was “comparable” and the “Mean SMV exposure (AUC), higher in CP B vs CP A pts” value ([2]; Wk2) was 1.3 fold. For the same compound, the “individual pt exposures in the CP B group” value ([2]; compared with CP A) was “within the range observed for CP A”, the AUC [2, 3] was 114000 ng·h/mL and the Cmax [2, 3] was 6980 ng/mL. The AUC [2, 4] was 144000 ng·h/mL, the Cmax [2, 4] was 7950 ng/mL and the AUC [2, 5] was 98600 ng·h/mL. It also gave a Cmax [2, 5] of 6030 ng/mL, an AUC [2, 6] of 176000 ng·h/mL and a Cmax [2, 6] of 8840 ng/mL.
For CC(C)OC(=O)[C@H](C)N[P@](=O)(OC[C@H]1O[C@@H](n2ccc(=O)[nH]c2=O)[C@](C)(F)[C@@H]1O)Oc1ccccc1 [Sofosbuvir, sofosbuvir], the “mean exposure, higher in Child-Pugh B subjects than in Child-Pugh A subjects” value ([1]; treatment with SMV+SOF+DCV) was 1.4 fold, the “Mean exposures within groups and at Wk2 vs Wk8” value ([2]; CP A and CP B) was “similar” and the AUC [2, 7] was 2860 ng·h/mL. For the same compound, the Cmax [2, 7] was 1570 ng/mL, the AUC [2, 8] was 3770 ng·h/mL and the Cmax [2, 8] was 1740 ng/mL. For the same compound, the AUC [2, 9] was 2730 ng·h/mL, the Cmax [2, 9] was 1280 ng/mL and the AUC [2, 10] was 3770 ng·h/mL. For the same compound, the Cmax [2, 10] was 1420 ng/mL.
